Test results: patent US12122821B2, “Regulation of glucose metabolism using anti-CGRP antibodies” (H. LUNDBECK A/S, priority 2013, dated 2024)
“Also recorded” adds a separate entry of the source.

Legend:
[1] = tested on: Normal rats; assay: Individual tissue glucose utilization rate (14C-2-DOG) during clamp in normal rats (Example 1); assay type: in vivo, rat; details: Ab14 100 mg/kg i.v., metformin 500 mg/kg p.o., vs vehicle
Experimental: To determine the individual tissue glucose utilization rate, a bolus injection of 100 μCi per rat of deoxy-D-glucose 2-^14C (^14C-2-DOG) through the femoral vein was performed 60 min before the end of the D-[3-^3H]-glucose infusion. Plasma ^14C-2-DOG disappearance and glucose concentration were determined in 10 μL drops of blood sampled from the tip of the tail vein at 0, 5, 10, 15, 20, 25, 30, 45, and 60 minutes after the injection. At the end of the experiment, vastus lateralis (VL), extensor digitorum longus (EDL) and soleus muscles, epididymal and inguinal white adipose tissues, heart apex, and skin (as negative control) were dissected, flash frozen and kept at −80° C. A piece of each tissue was dissolved in 1M NaOH and then neutralized with 1M HCl. […]. D-2-^14C deoxyglucose was differentially precipitated by the use of a zinc hydroxide (0.3M) solution or a perchloric acid solution (6%). Both radioactivity contents were measured to evaluate the glucose uptake expressed as ng/mg/min.

[2] = tested on: HFD rats; assay: Body weight and food intake in high fat/high fructose diet (HFD) rats (Example 2); assay type: in vivo, rat; details: vs HFD vehicle
Experimental: After 6 weeks of HFD rats were randomized to treatment groups according to their glucose intolerance (AUC calculation during an oral glucose tolerance test (OGTT)) and their HOMA-IR (insulin resistance index).
(§1) Body weight and food consumption were measured 3 times per week until 10 days of treatment. HOMA-IR was measured on day 10 and 15. A 2-step clamp (5 mU/kg/min and then 15 mU/kg/min insulin) was performed on day 15 or 16. Glucose Turnover (GTO) was assessed using ^3H-glucose tracer infusion during the clamp procedure.
Ab14 (10, 30, 100 mg/kg) and the vehicle were weekly administered via i.v. route (via the caudal vein, under isoflurane anaesthesia), in the morning, on day 1 and day 8 of treatment.
Body weight was measured once a week during the first six week of HFD. Body weight was measured 3 times per week during the first 10 days of treatment. Food consumption was measured over 48 h or 72 h, just before treatment and 3 times per week during treatment until surgery procedure (day 11).

[3] = tested on: HFD rats; assay: 2-step hyperinsulinemic-euglycemic clamp in HFD rats (Example 2); assay type: in vivo, rat; details: metformin 200 mg/kg/day, vs HFD vehicle
Experimental: Six-week HFD fed rats were treated for 2 weeks with Ab14, and a 2-step hyperinsulinemic euglycemic clamp was performed to assess insulin sensitivity. A physiological dose of insulin was used during the first step and a pharmacological dose of insulin was used during the second step to assess the effects of […] insulin sensitivity, respectively, under these two conditions.
as §1
On day 15 or 16, the 2-step hyperinsulinemic-euglycemic clamp was performed using ^3H-glucose as a tracer (except in the normal chow group), and 5 mU/kg/min insulin infusion from 02:00 pm (T0) to 04:00 pm (T+2 h), followed by 15 mU/kg/min insulin infusion from 04:00 pm to 05:30 pm (t+3.5 h). A glucose solution was infused in parallel and the infusion rate was adjusted to reach the steady state (100±10 mg/dL). Blood glucose was measured from the tip of the tail using glucometers every 10 minutes. Blood was collected (10 μL) regularly from the tip of the tail during the steady states of each step.
The following parameters were assessed: Glucose infusion rate (in all groups); Whole body glucose utilization rate (except in the normal chow group); Hepatic glucose production rate (except in the normal chow group); Whole body glycogen and glycolytic rates (except in the normal chow group).

[4] = tested on: Zucker diabetic fatty (ZDF) rat; details: ZDF rats
Experimental: Each pancreas was divided into 2 parts (longitudinal cut). One piece was fixed in 10% formalin solution for histopathological processing. The other piece of pancreas was flash frozen and kept at −80° C. for determination of insulin and proinsulin levels.
Each pancreas sample was fixed in 4% formalin during 24-48 hours maximum; the volume of formalin was 5-10 times higher than the sample volume to assure appropriate fixation. After 48 h, the samples were placed in 70% ethanol.

[5] = Ab14 10, 30, 100 mg/kg/week i.v., metformin 200 mg/kg/day
[6] = Ab14 60 mg/kg/wk., Met. 200 mg/kg/day

CN(C)C(=N)N=C(N)N [metformin, reference compound]
change of glucose utilization in the heart [1]: −39%
glucose utilization rate in white adipose tissues (deep and subcutaneous) [1]: did not affect
increase of glucose utilization in mixed vastus lateralis muscle (VL) [1]: 49%
increase of glucose utilization in glycolytic extensor digitorum longus muscle (EDL) ([1]; NS): 19%
body weight ([2]; 10 days of treatment, Ab14 10, 30, 100 mg/kg/week i.v., metformin 200 mg/kg/day): significantly decreased
body weight gain ([2]; Ab14 30 mg/kg, metformin 200 mg/kg): significantly decreased
decrease of cumulative food consumption [2, 5]: 25%
food consumption (follow-up food intake) [2, 5]: significantly decreased
GIR (plateau) during the first clamp step ([3]; 5 mU/kg/min insulin, Ab14 treated groups (10, 30, 100 mg/kg)): increasing effect upon GIR that was comparatively less in magnitude; also recorded: no effect
increase of mean GIR, first step ([3]; 5 mU/kg/min insulin, ns): 11%
HGP, second step ([3]; 15 mU/kg/min insulin): completely inhibited
increase of mean GIR, second step ([3]; 15 mU/kg/min insulin): 27%
vacuolization and islet fibrosis severity ([4]; AB14 60 mg/kg, metformin, or combined, vs vehicle ZDF): trend towards a decrease
Arteries, medial/intimal hypertrophy, severity 0, incidence [4, 6]: 9
Arteries, medial/intimal hypertrophy, severity 1, incidence [4, 6]: 1
Brown pigment-laden, severity 1, incidence [4, 6]: 7
Brown pigment-laden, severity 2, incidence [4, 6]: 3
Eosinophilic granulocyte infiltration, severity 0, incidence [4, 6]: 10
Exocrine cell vacuolation, severity 0, incidence [4, 6]: 10
Fat tissue: Fat tissue necrosis, group mean score [4, 6]: 0
Interstitial fibroplasia/fibrosis, severity 0, incidence [4, 6]: 9
Interstitial fibroplasia/fibrosis, severity 1, incidence [4, 6]: 1
Interstitial hemorrhage, severity 0, incidence [4, 6]: 4
Interstitial hemorrhage, severity 1, incidence [4, 6]: 6
Islet Cell Vacuolation, severity 0, incidence [4, 6]: 1
Islet Cell Vacuolation, severity 1, incidence [4, 6]: 4
Islet Cell Vacuolation, severity 2, incidence [4, 6]: 5
Islet Fibrosis, severity 1, incidence [4, 6]: 3
Islet Fibrosis, severity 2, incidence [4, 6]: 7
Islet cell anisocytosis/anisokaryosis, severity 0, incidence [4, 6]: 2
Islet cell anisocytosis/anisokaryosis, severity 1, incidence [4, 6]: 8
Islet cell mitosis, severity 0, incidence [4, 6]: 5
Islet cell mitosis, severity 1, incidence [4, 6]: 5
Islet cell single cell necrosis, severity 0, incidence [4, 6]: 7
Islet cell single cell necrosis, severity 1, incidence [4, 6]: 3
Islet granulocytic infiltration, severity 0, incidence [4, 6]: 6
Islet granulocytic infiltration, severity 1, incidence [4, 6]: 4
Islet hemorrhage, severity 0, incidence [4, 6]: 8
Islet hemorrhage, severity 1, incidence [4, 6]: 2
Large/Giant Islets, severity 0, incidence [4, 6]: 1
Large/Giant Islets, severity 1, incidence [4, 6]: 1
Large/Giant Islets, severity 2, incidence [4, 6]: 3
Large/Giant Islets, severity 3, incidence [4, 6]: 5
Lymph node: Brown pigment-laden macrophages, group mean score [4, 6]: 0
Lymph node: Eosinophilic granulocyte infiltration, group mean score [4, 6]: 0.5
Lymph node: Erythrophagocytosis—sinusoidal, group mean score [4, 6]: 0
Lymph node: Pink protein rich sinusoidal lymph, group mean score [4, 6]: 0
Lymph node: Sinusoidal hemorrhage, group mean score [4, 6]: 0
Lymph node: Sinusoidal mast cells, group mean score [4, 6]: 0
Mononuclear cell infiltration, severity 1, incidence [4, 6]: 10
Pancreas: Arteries, medial/intimal hypertrophy, group mean score [4, 6]: 0
Pancreas: Brown pigment-laden macrophages, group mean score [4, 6]: 1
Pancreas: Eosinophilic granulocyte infiltration, group mean score [4, 6]: 0
Pancreas: Exocrine cell vacuolation, group mean score [4, 6]: 0
Pancreas: Interstitial fibroplasia/fibrosis, group mean score [4, 6]: 0
Pancreas: Interstitial hemorrhage, group mean score [4, 6]: 1
Pancreas: Islet cell anisocytosis/anisokaryosis, group mean score [4, 6]: 1
Pancreas: Islet cell mitosis, group mean score [4, 6]: 0.5
Pancreas: Islet cell single cell necrosis, group mean score [4, 6]: 0
Pancreas: Islet cell vacuolation, group mean score [4, 6]: 1.5
Pancreas: Islet fibrosis, group mean score [4, 6]: 2
Pancreas: Islet granulocytic infiltration, group mean score [4, 6]: 0
Pancreas: Islet hemorrhage, group mean score [4, 6]: 0
Pancreas: Large/giant islet(s), group mean score [4, 6]: 2.5
Pancreas: Mononuclear cell infiltration, group mean score [4, 6]: 1
Pancreas: Pancreatic ductule hyperplasia, group mean score [4, 6]: 0.5
Pancreatic ductule hyperplasia, severity 0, incidence [4, 6]: 5
Pancreatic ductule hyperplasia, severity 1, incidence [4, 6]: 5
